Laboratory results taken from patent publication US8501936B2 (priority 2009, dated 2013).

Experiments:
human JAK2 = human JAK2 (Homo sapiens (Human), UniProt O60674); settings: read-out: JAK2 IC50
human FAK = human FAK (Homo sapiens (Human), UniProt Q05397); settings: read-out: FAK IC50
Chain of human FAK (Q05397 whole entry): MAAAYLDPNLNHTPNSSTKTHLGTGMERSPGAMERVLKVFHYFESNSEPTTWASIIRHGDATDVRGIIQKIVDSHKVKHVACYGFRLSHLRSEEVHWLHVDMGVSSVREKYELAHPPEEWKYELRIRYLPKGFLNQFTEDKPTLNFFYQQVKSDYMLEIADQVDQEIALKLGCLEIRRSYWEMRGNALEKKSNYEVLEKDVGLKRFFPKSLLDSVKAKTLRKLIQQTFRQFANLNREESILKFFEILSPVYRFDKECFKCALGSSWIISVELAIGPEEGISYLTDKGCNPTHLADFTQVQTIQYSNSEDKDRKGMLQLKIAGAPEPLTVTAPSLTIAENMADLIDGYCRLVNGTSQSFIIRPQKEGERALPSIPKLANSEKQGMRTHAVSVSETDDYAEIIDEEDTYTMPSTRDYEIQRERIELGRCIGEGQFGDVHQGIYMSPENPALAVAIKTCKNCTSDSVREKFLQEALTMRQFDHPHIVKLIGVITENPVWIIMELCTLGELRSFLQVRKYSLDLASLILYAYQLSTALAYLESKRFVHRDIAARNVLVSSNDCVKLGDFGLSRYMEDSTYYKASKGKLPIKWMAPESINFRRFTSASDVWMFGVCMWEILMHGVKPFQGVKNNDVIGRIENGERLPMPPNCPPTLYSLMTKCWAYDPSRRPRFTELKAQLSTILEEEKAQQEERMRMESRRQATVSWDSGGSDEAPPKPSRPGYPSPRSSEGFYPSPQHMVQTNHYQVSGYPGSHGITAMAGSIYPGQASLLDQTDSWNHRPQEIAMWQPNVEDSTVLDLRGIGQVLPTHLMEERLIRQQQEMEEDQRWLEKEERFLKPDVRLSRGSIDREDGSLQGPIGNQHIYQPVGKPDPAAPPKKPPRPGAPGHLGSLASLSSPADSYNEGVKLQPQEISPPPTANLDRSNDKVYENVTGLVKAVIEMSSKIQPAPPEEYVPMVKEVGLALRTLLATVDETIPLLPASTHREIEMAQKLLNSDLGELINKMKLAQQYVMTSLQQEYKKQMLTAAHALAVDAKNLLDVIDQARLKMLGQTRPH
Procedure: The ability of compounds to inhibit the kinase activity of baculovirus-expressed human FAK and PYK2 was measured using the 96-well plate TRF assay system described above for JAK2. […] For the FAK kinase assay, the reaction mixture (total volume=100 μL/well) contained 20 mM HEPES (pH 7.2), 10 μM ATP, 5 mM MgCl2, 0.5 mM DTT, 0.1% BSA, and test compound (diluted in DMSO; 2.5% DMSO final in assay). For PYK2, the 100 μL assay solution consisted of 20 mM HEPES (pH 7.2), 3 μM ATP, 5 mM MnCl2, 0.1% BSA, and test compound (diluted in DMSO; 2.5% DMSO final in assay). Enzyme (10 ng/mL FAK or 25 ng/mL PYK2) was added and the reaction was allowed to proceed at room temperature for 30 min. Detection of the phosphorylated product was performed by adding 100 μL/well of Eu—N1 labeled PY100 antibody diluted 1:75000 in 0.25% BSA in TBS-T (PerkinElmer #AD0041). […] Inhibition data were analyzed using ActivityBase and IC50 curves generated using XLFit.

Chain of human JAK2 (O60674 815-1132): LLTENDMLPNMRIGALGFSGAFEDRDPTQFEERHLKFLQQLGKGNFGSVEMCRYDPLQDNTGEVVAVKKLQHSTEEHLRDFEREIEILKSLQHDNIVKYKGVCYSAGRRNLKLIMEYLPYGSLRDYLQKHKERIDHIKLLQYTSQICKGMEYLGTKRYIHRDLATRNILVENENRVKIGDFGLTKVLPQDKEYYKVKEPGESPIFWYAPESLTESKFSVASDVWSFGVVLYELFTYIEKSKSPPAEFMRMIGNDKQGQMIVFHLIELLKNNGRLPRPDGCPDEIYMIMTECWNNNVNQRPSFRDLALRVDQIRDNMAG

| SMILES | IC50 (human JAK2) [µM] | IC50 (human FAK) [µM] |
| --- | --- | --- |
| Fc1ccc(-n2cc(-c3cccn4nc(Nc5ccc(C6CCNCC6)cc5)nc34)cn2)cc1 [Example 282] | 0.00212 | 0.999 |
| COc1cnc(-c2cccn3nc(Nc4ccc(C5CCNCC5)cc4)nc23)cn1 [Example 285] | 0.0737 | 2.47 |
| COc1cnc(-c2cccn3nc(Nc4ccc(C5CCN(CC(=O)N(C)C)CC5)cc4)nc23)cn1 [Example 286, 2-(4-{4-[8-(5-Methoxy-pyrazin-2-yl)-[1,2,4]triazolo[1,5-a]pyridine-2-ylamino]-phenyl}-piperidin-1-yl)-N,N-dimethyl-acetamide] | 0.134 | 3 |
| CN1CCN(c2cccc(Nc3nc4c(-c5cnn(-c6ccc(F)cc6)c5)cccn4n3)c2)CC1 [Example 288, {8-[1-(4-Fluoro-phenyl)-1H-pyrazol-4-yl]-[1,2,4]triazolo[1,5-a]pyridine-2-yl}-[3-(4-methyl-piperazin-1-yl)-phenyl]-amine] | 0.00564 | 3 |
| Cc1ccc(-n2cc(-c3cccn4nc(Nc5ccc(C6CCNCC6)cc5)nc34)cn2)cc1 [Example 289, (4-Piperidin-4-yl-phenyl)-[8-(1-p-tolyl-1H-pyrazol-4-yl)-[1,2,4]triazolo[1,5-a]pyridine-2-yl]-amine] | 0.00404 | 2.42 |
| CC(C)COc1cccc(-c2cccn3nc(Nc4ccc5c(c4)CCNCC5)nc23)c1 [Example 294, [8-(3-Isobutoxy-phenyl]-[1,2,4]triazolo[1,5a]pyridine-2-yl]-(2,3,4,5-tetrahydro-benzo[d]azepin-7-yl)-amine] | 0.0326 | 3 |
| Cc1ccc(-c2cccn3nc(Nc4ccc5c(c4)CCNCC5)nc23)c(OCC(C)C)c1 [Example 296, [8-(2-Isobutoxy-4-methyl-phenyl]-[1,2,4]triazolo[1,5a]pyridine-2-yl]-(2,3,4,5-tetrahydro-benzo[d]azepin-7-yl)-amine] | 2.8 | 3 |
| Cn1ncc2c(-c3cccn4nc(Nc5ccc6c(c5)CCNCC6)nc34)cccc21 [Example 298, [8-(1-Methyl-1H-indazol-4-yl)-[1,2,4]triazolo[1,5a]pyridine-2-yl]-(2,3,4,5-tetrahydro-benzo[d]azepin-7-yl)-amine] | 0.0165 | 1.03 |
| c1ccc(-c2cccn3nc(Nc4ccc5c(c4)CCNCC5)nc23)c(OCC2CC2)c1 [Example 301, [8-(2-Cyclopropylmethoxy-phenyl]-[1,2,4]triazolo[1,5a]pyridine-2-yl]-(2,3,4,5-tetrahydro-benzo[d]azepin-7-yl)-amine] | 0.112 | 2.79 |
| Cc1ccc(OCC(C)C)c(-c2cccn3nc(Nc4ccc5c(c4)CCNCC5)nc23)c1 [Example 305, [8-(2-Isobutoxy-5-methyl-phenyl]-[1,2,4]triazolo[1,5a]pyridine-2-yl]-(2,3,4,5-tetrahydro-benzo[d]azepin-7-yl)-amine] | 3.08 | 10 |
| CCCOc1ccc(Cl)cc1-c1cccn2nc(Nc3ccc4c(c3)CCNCC4)nc12 [Example 307, [8-(5-Chloro-2-propoxy-phenyl]-[1,2,4]triazolo[1,5a]pyridine-2-yl]-(2,3,4,5-tetrahydro-benzo[d]azepin-7-yl)-amine] | 0.828 | 1.05 |
| CCCOc1ccc(Cl)cc1-c1cccn2nc(Nc3ccc4c(c3)CCN(CC(=O)N(C)C)CC4)nc12 [Example 308, 2-{7-[8-(5-Chloro-2-propoxy-phenyl]-[1,2,4]triazolo[1,5a]pyridine-2-ylamino]1,2,4,5-tetrahydro-benzo[d]azepin-3-yl)-N,N-dimethyl-acetamide] | 0.365 | 0.946 |
| CCOc1ccc(Cl)cc1-c1cccn2nc(Nc3ccc4c(c3)CCNCC4)nc12 [Example 310, [8-(5-Chloro-2-ethoxy-phenyl]-[1,2,4]triazolo[1,5a]pyridine-2-yl]-(2,3,4,5-tetrahydro-benzo[d]azepin-7-yl)-amine] | 0.0334 | 1.23 |
| COc1ccccc1-c1cccn2nc(Nc3ccc4c(c3)CCN(CC(=O)N(C)C)CC4)nc12 [Example 313, 2-{7-[8-(2-Methoxy-phenyl)-[1,2,4]triazolo[1,5-a]pyridine-2-ylamino]-1,2,4,5-tetrahydro-3-benzazepin-3-yl}-N,N-dimethyl-acetamide] | 0.0392 | 10 |
| COc1ccccc1-c1cccn2nc(Nc3ccc4c(c3)CCN(CCS(C)(=O)=O)CC4)nc12 [Example 314, [3-(2-Methanesulfonyl-ethyl)-2,3,4,5-tetrahydro-1H-3-benzazepin-7-yl]-[8-(2-methoxy-phenyl)-[1,2,4]triazolo[1,5-a]pyridine-2-yl]-amine] | 0.0178 | 10 |
| COc1ccc(C(F)(F)F)cc1-c1cccn2nc(Nc3ccc4c(c3)CCN(CC(=O)N(C)C)CC4)nc12 [Example 317, 2-{7-[8-(2-Methoxy-5-trifluoromethyl-phenyl)-[1,2,4]triazolo[1,5-a]pyridin-2-ylamino]-1,2,4,5-tetrahydro-3-benzazepin-3-yl}-N,N-dimethyl-acetamide] | 0.0545 | 2 |
| CCOc1ccc(C(F)(F)F)cc1-c1cccn2nc(Nc3ccc4c(c3)CCNCC4)nc12 [Example 319] | 0.137 | 1.31 |
| CCOc1ccc(C(F)(F)F)cc1-c1cccn2nc(Nc3ccc4c(c3)CCN(CCS(C)(=O)=O)CC4)nc12 [Example 320, [8-(2-Ethoxy-5-trifluoromethyl-phenyl)-[1,2,4]triazolo[1,5-a]pyridin-2-yl]-[3-(2-methanesulfonyl-ethyl)-2,3,4,5-tetrahydro-1H-3-benzazepin-7yl)-amine] | 0.16 | 3 |
| CCOc1ccc(C(F)(F)F)cc1-c1cccn2nc(Nc3ccc4c(c3)CCN(CC(=O)N(C)C)CC4)nc12 [Example 321, 2-{7-[8-(2-Ethoxy-5-trifluoromethyl-phenyl)-[1,2,4]triazolo[1,5-a]pyridin-2-ylamino]-1,2,4,5-tetrahydro-3-benzazepin-3-yl}-N,N-dimethyl-acetamide] | 0.223 | 1.78 |
| COc1ccc(C(F)(F)F)cc1-c1cccn2nc(Nc3ccc4c(c3)CCN(CCS(C)(=O)=O)CC4)nc12 [Example 322, [3-(2-Methanesulfonyl-ethyl)-2,3,4,5-tetrahydro-1H-3-benzazepin-7-yl]-[8-(2-methoxy-5-trifluoromethyl-phenyl)-[1,2,4]triazolo[1,5-a]pyridine-2-yl]-amine] | 0.0127 | 0.572 |
| COc1ccc(F)cc1-c1cccn2nc(Nc3ccc4c(c3)CCN(CC(=O)N(C)C)CC4)nc12 [Example 323, 2-{7-[8-(5-Fluoro-2-methoxy-phenyl)-[1,2,4]triazolo[1,5-a]pyridin-2-ylamino]-1,2,4,5-tetrahydro-3-benzazepin-3-yl}-N,N-dimethyl-acetamide] | 0.0113 | 0.691 |
| COc1cc(F)ccc1-c1cccn2nc(Nc3ccc4c(c3)CCN(CC(=O)N(C)C)CC4)nc12 [Example 324, 2-{7-[8-(4-Fluoro-2-methoxy-phenyl)-[1,2,4]triazolo[1,5-a]pyridin-2-ylamino]-1,2,4,5-tetrahydro-3-benzazepin-3-yl}-N,N-dimethyl-acetamide] | 0.047 | 3 |
| FC(F)COc1ccc(C(F)(F)F)cc1-c1cccn2nc(Nc3ccc4c(c3)CCNCC4)nc12 [Example 328] | 0.257 | 0.999 |
| CN(C)C(=O)CN1CCc2ccc(Nc3nc4c(-c5cc(C(F)(F)F)ccc5OCC(F)F)cccn4n3)cc2CC1 [Example 329, 2-(7-{8-[2-(2,2-Difluoro-ethoxy)-5-trifluoromethyl-phenyl]-[1,2,4]triazolo[1,5-a]pyridin-2-ylamino}-1,2,4,5-tetrahydro-3-benzazepin-3-yl)-N,N-dimethyl-acetamide] | 0.317 | 0.999 |
| COc1cc(Cl)ccc1-c1cccn2nc(Nc3ccc4c(c3)CCN(CC(=O)N(C)C)C4)nc12 [Example 331, 2-{6-[8-(4-Chloro-2-methoxy-phenyl)-[1,2,4]-triazolo[1,5-a]pyridin-2-ylamino]-3,4-dihydro-1H-isoquinolin-2-yl}-N,N-dimethyl-acetamide] | 0.0213 | 6.5 |
| COc1ccc(C(F)(F)F)cc1-c1cccn2nc(Nc3ccc4c(c3)CCN(C(=O)OC(C)(C)C)C4)nc12 [Example 336, 6-[8-(2-Methoxy-5-trifluoromethyl-phenyl)-[1,2,4]triazolo[1,5-a]pyridin-2-ylamino]-3,4-dihydro-1H-isoquinoline-2-carboxylic acid tert-butyl ester] | 1.15 | 10 |
| COc1ccc(C(F)(F)F)cc1-c1cccn2nc(Nc3ccc4c(c3)CCNC4)nc12 [Example 337, [8-(2-Methoxy-5-trifluoromethyl-phenyl)-[1,2,4]triazolo[1,5-a]pyridine-2-yl]-(1,2,3,4-tetrahydro-isoquinolin-6-yl)-amine] | 0.0419 | 0.778 |
| COc1ccc(C(F)(F)F)cc1-c1cccn2nc(Nc3ccc4c(c3)CCN(CC(=O)N(C)C)C4)nc12 [Example 338, 2-{6-[8-(2-Methoxy-5-trifluoromethyl-phenyl)-[1,2,4]-triazolo[1,5-a]pyridin-2-ylamino]-3,4-dihydro-1H-isoquinolin-2-yl}-N,N-dimethyl-acetamide] | 0.0414 | 1.37 |
| CN1CCN(c2cccc(Nc3nc4c(-c5ccc(F)cc5)cccn4n3)c2)CC1 [Example 365, [8-(4-Fluoro-phenyl)-[1,2,4]-triazolo[1,5-a]pyridin-2-yl]-[3-(4-methyl-piperazin-1-yl)-phenyl]-amine] | 0.0291 | 0.999 |
| CN(C)C(=O)CN1CCc2ccc(Nc3nc4c(-c5ccccc5OCC(F)F)cccn4n3)cc2CC1 [Example 368, 2-(7-{8-[2-(2,2-Difluoro-ethoxy)-phenyl]-[1,2,4]triazolo[1,5-a]pyridin-2-ylamino}-1,2,4,5-tetrahydro-3-benzazepin-3-yl)-N,N-dimethyl-acetamide] | 0.197 | 2.43 |
